“And” between values parts separate entries of the source, which are not always exact repeats. Equal entries are not always repeated. Where two headings read alike, the source gives them in different places.
Conditions: for Log k (logarithm of the retention factor): C18 column, methanol-water; for φ 0 (isocratic chromatographic hydrophobicity index): φ 0 = − log kw/S, methanol as organic modifier, C18; for Log kw (lipophilicity chromatographic index, intercept of log k = log kw − S φ): extrapolated to pure water as eluent, C18, methanol-water
Method: For chromatographic analysis, stock solutions (200 μg/mL) of each of the investigated samples were prepared in methanol. HPLC measurements were performed utilizing Shimadzu Prominence HPLC system (Shimadzu Corporation, Japan) consisting of LC-20 AD pump, DGU-20 A5 degasser, CBM-20A interface, and SPD-20A UV–Vis detector with a 20 µL injection loop. The column utilized for studying the chromatographic behavior of the analytes was the most frequently used for lipophilicity investigations: Waters symmetry® C18 column [250 mm × 4.6 mm (i.d.), 5-μm particle size]. The flow rate was 1.2 mL/min at room temperature. The retention behaviour of the analytes was investigated as a function of mobile phase composition ranging from 60–80% methanol and 40–20% water. The HPLC analyses were carried out at room temperature under isocratic conditions. Membrane filters (0.45 μm) from Sartorius (Goettingen, Germany) were used for filtration of samples. The absorbance of the analytes during a chromatographic run was performed at 200 nm. Each experiment was run in duplicate. Chromatographic data were collected using LabSolutions CS software. H^1NMR spectra were recorded using Bruker NMR spectrometer (Bruker GmbH, Germany),
It was shown from previous reports that the chromatographic systems using methanol: water as mobile phases were better for log k modeling than those containing acetonitrile as an organic modifier. […] Chromatographic techniques including HPLC are based on the determination of the retention parameters. The indices of lipophilicity measured by HPLC are obtained from the logarithm of the retention factor (log k), which is calculated by the following equation:1 logk=logtr-t0/t0 where; tR is the retention time of the solute and t0 is the retention time of unretained species.
Estimating log kw directly is often very difficult, and is nearly non-feasible, because it can produce elongated retention time and also extreme peak broadening. […] Consequently, to obtain log kw, an extrapolation to 100% of pure water was carried out. Then, linear regression analysis was performed. Linear extrapolation is favored using definite ratios of organic modifier consistent with the lipophilicity level of the solutes.
Another substitute to the index of lipophilicity is the chromatographic index of hydrophobicity φ 0 which was first given by Valkò et al.. It is calculated simply by the equation: φ 0 = − log kw/S. φ0 denotes the volume fraction of the organic modifier in the mobile phase at which equal partitioning of the solute between the mobile and stationary phases is obtained, that is, k = 1, log k = 0 [22]. The value of φ 0 is specific for each compound; it relies solely on the pH, organic modifier and temperature.

[1] = 65% methanol in the mobile phase
[2] = 70% methanol in the mobile phase
[3] = 75% methanol in the mobile phase
[4] = 60% methanol in the mobile phase

Compound | Log k (logarithm of the retention factor) [1] | Log k (logarithm of the retention factor) [2] | Log k (logarithm of the retention factor) [3] | Log k (logarithm of the retention factor) (80% methanol in the mobile phase) | Log k (logarithm of the retention factor) [4] | φ 0 (isocratic chromatographic hydrophobicity index) | Log kw (lipophilicity chromatographic index, intercept of log k = log kw − S φ)
Cc1ccc(-c2cc(C(F)(F)F)nn2-c2ccc(S(N)(=O)=O)cc2)cc1 [Celecoxib, 4-[5-(4-methylphenyl)-3-(trifluoromethyl)pyrazol-1yl]benzenesulfonamide, reference compound] | 0.950 | 0.83 | 0.530 | 0.235 |  |  | 
O=C(CS(=O)(=O)c1ccccc1)c1ccccc1 [Compound 11a] | 0.041 |  |  |  | 0.088 | 64.83 | 
Cc1ccc(C(=O)CS(=O)(=O)c2ccccc2)cc1 [Compound 11b] | 0.493 |  |  |  | 0.317 | 69.81 | 3.597 and 3.60
O=C(CS(=O)(=O)c1ccccc1)c1ccc(Br)cc1 [Compound 11c] | 0.501 | 0.123 |  |  | 0.635 | 75.14 | 3.151 and 3.15
Cc1ccc(S(=O)(=O)CC(=O)c2ccc(Br)cc2)cc1 [Compound 11d] | 0.901 | 0.364 | 0.123 |  |  | 77.99 | 4.784 and 4.78
O=S(=O)(C/C(=N/O)c1ccccc1)c1ccccc1 [Compound 16a] | 0.053 |  |  |  | 0.130 | 64.39 | 1.941 and 1.94
Cc1ccc(/C(CS(=O)(=O)c2ccccc2)=N\O)cc1 [Compound 16b] | 0.280 | 0.150 |  |  | 0.481 | 72.57 | 2.715 and 2.72
O=S(=O)(C/C(=N/Nc1ccccc1)c1ccccc1)c1ccccc1 [Compound 17a] | 0.824 | 0.740 |  |  | 0.950 | 77.97 | 4.59
Cc1ccc(/C(CS(=O)(=O)c2ccccc2)=N\Nc2ccccc2)cc1 [Compound 17b] | 0.743 | 0.611 |  |  | 0.847 | 74.52 | 5.182 and 5.18
